For data set [1] the following is noted: cited from earlier work.
Data set [2] can be described thus: Incorporation of Tacrolimus into MPEG-hexPLA polymer micelles. To be noted: loadings up to 300 mg Tacrolimus per gram MPEGhexPLA; aqueous micelle solution, acetone/water sonication protocol. Type of data set: physicochemical. How it is done: Objective is the evaluation of the methoxypoly(ethylene glycol)-hexyl-substituted poly(lactic acid) [MPEG-hexPLA] polymer micelles' potential to incorporate and solubilize Tacrolimus.
The incorporation studies were carried out by a standard formulation protocol. Briefly, a defined amount of Tacrolimus was dissolved in acetone and added dropwise under sonication into water, followed by evaporation of the organic solvent and equilibration of the micelle solution overnight.
As it can be seen, for loadings up to 300 mg Tacrolimus per gram MPEGhexPLA, loading efficiencies higher than 70% could be obtained by this simple procedure. FIG. 2 presents the corresponding concentrations of Tacrolimus in the aqueous solution. It has to be noted, that these solutions can be further concentrated by simple evaporation to obtain higher drug concentrations, and keeping the transparency of the solutions.

Data set [3] can be described thus: Storage stability of Tacrolimus MPEG-hexPLA micelle formulations at 4° C. It is filed as physicochemical. Conditions: stored at 4° C. An excerpt:
The non-incorporated active compound can be removed by a simple filtration.

`C=CCC1/C=C(\C)CC(C)CC(OC)C2OC(O)(C(=O)C(=O)N3CCCCC3C(=O)OC(/C(C)=C/C3CCC(O)C(OC)C3)C(C)C(O)CC1=O)C(C)CC2OC` (stereo not shown) [Tacrolimus, 17-allyl-1,14-dihydroxy-12-[2-(4-hydroxy-3-methoxycyclohexyl)-1-methylvinyl]-23,25-dimethoxy-13,19,21,27-tetramethyl-11,28-dioxa-4-azatricyclo[22.3.1.0^4,9]octacos-18-ene-2,3,10,16-tetraone]: in data set [1], the water solubility entry is “poorly water-soluble”. Moreover, the loading efficiencies result in data set [2] was “higher than 70%”. Also, in data set [3] (formulation with a target of 150 mg/g), the stability on storage entry is reported as “best stable formulation”. In addition, the “stability on storage (precipitation)” value in data set [3] (higher (than 150 mg/g target) and possibly oversaturated formulations) is given as “slight drug precipitation”.
